System: T25 (DNA, single strand, C6-amino dT at 8 of strand 2) TGGCGACGGCAGCGAGGCTTTTTTTTTTTTTTTTTTTTTTTTT/GCCTCGCTGCCGTCGCCA
Assay: Cy3 fluorescence quenching
Conditions: 100 mM KCl; 10 mM Tris-HCl pH 7.5, room temperature, 50 nM DNA; negative control, nonspecific quenching taken as background

CCc1c(C)c2cc3nc(cc4nc(cc5c(CC)c(C)c(cc1[nH]2)n5C)C(C)=C4CCC(=O)O)C(CCC(=O)O)=C3C
binding: weak

From PMC4081081 (2014)
